The nature of data set [1]: Plasma lipids and antioxidants in apoE−/− mice. The format is in vivo. As to the method: Male C57BL/6J mice, homozygous for the disrupted apoE gene (apoE−/−) were fed standard chow (Lab-Feed, Sydney, Australia) until aged 10 weeks. […] Separate aliquots were acidified with metaphosphoric acid (5%) to stabilize vitamin C prior to freezing and storage at −80° C. The remainder was pooled appropriately and used for ex vivo oxidation initiated by the peroxyl radical generator AAPH and lipoprotein separation by FPLC with UV280nm detection, as described in J Lipid Res. 1 999;40:1104-1112. Lipid-soluble antioxidants and lipids were quantified by HPLC as described in FASEB J. 1999;13:667-675. For ascorbate analysis, frozen acidified samples were thawed, diluted with DPBS to adjust the pH to 7.4 and then immediately subjected to HPLC. Plasma triglycerides were determined enzymatically (Boehringer, Mannheim, Germany).

Data set [2] has as its system atherosclerosis/restenosis in ballooned New Zealand White rabbits. The data set can be described thus: Atherosclerosis/restenosis in cholesterol-fed, ballooned New Zealand White rabbits. The format is in vivo. The conditions noted are these: 2% cholesterol diet with 1% probucol for 6 weeks. The procedure:
Aortic endothelial denudation was performed at week 3 by withdrawing an inflated 3F Fogarty balloon embolectomy catheter three times down the length of the aorta. Plasma was obtained from animals as described in Example 1 at the start and end of the study. At the end of the study period, individual aortas were removed and prepared for HPLC analysis as in Example 1. Lipids and antioxidants including probucol and its metabolites, bisphenol and diphenoquinone, were analyzed by RP-HPLC as described previously. Aortas designated for histology were perfusion-fixed with 4% (v/v) formaldehyde and transferred into formalin. Cross-sections (2-3 μm thick) were prepared and stained with Weigert's hematoxylin-van Gieson, and the intima to media ratio determined for three sections.

Data set [3] in a line: Lipids and antioxidants in plasma lipoprotein fractions (size exclusion FPLC) of apoE−/− mice. The format is in vivo. The conditions noted are these: pooled plasma, 1% w/w probucol, 24 weeks. The procedure: Plasma was collected from individual mice, pooled, diluted 1:10 with buffer used for FPLC and 300 μL subjected to size exclusion chromatography. Chromatograms shown are representative of two analyses of independent pooled plasma samples. The horizontal bars indicate the corresponding fractions collected for each lipoprotein pool. Plasma was obtained from control and probucol mice and aliquots frozen for subsequent determination of lipids. Separate aliquots were acidified with metaphosphoric acid (5%) to stabilize vitamin C prior to freezing and storage at −80° C. The remainder was pooled appropriately and used for ex vivo oxidation initiated by the peroxyl radical generator AAPH and lipoprotein separation by FPLC with UV280nm detection, as described in J Lipid Res. 1 999;40:1104-1112. […] Two consecutive separations each employing 300 μL undiluted plasma were carried out. The corresponding eluents from both injections were collected, pooled according to fractions corresponding to very low-density lipoprotein (VLDL), LDL, and HDL plus mouse serum albumin (see FIG. 3) and then extracted and analysed for lipids and antioxidants.

A further data set concerns plasma lipids. The data set is described as follows: Ex vivo AAPH-induced oxidation of plasma from apoE−/− mice. Type of data set: in vivo. The conditions noted are these: plasma from probucol-treated mice, 5 mM AAPH, 37° C. As to the method:
Pooled plasma obtained from control (open symbols) or probucol-treated (closed symbols) mice was exposed to 5 mM of the aqueous peroxyl radical generator AAPH and incubated under air at 37° C. […] Data shown are mean±SD of a single oxidation experiment performed in triplicate using pooled plasma. Where error bars are not shown, error is smaller than the symbol.
Plasma was obtained from control and probucol mice and aliquots frozen for subsequent determination of lipids. Separate aliquots were acidified with metaphosphoric acid (5%) to stabilize vitamin C prior to freezing and storage at −80° C. The remainder was pooled appropriately and used for ex vivo oxidation initiated by the peroxyl radical generator AAPH and lipoprotein separation by FPLC with UV280nm detection, as described in J Lipid Res. 1 999;40:1104-1112.
Enhanced resistance of plasma lipoproteins to oxidation is often used as a measure of antioxidant efficacy. Therefore, we examined AAPH-induced oxidation of pooled plasma from control and treated animals. […] These observations can be explained readily on the basis of tocopherol-mediated peroxidation.

Data set [4] has as its system atherosclerotic lesions in apoE−/− mice. The data set can be described thus: Atherosclerotic lesion cross-section areas (morphometry) in apoE−/− mice. The conditions noted are these: lesion area of probucol group relative to controls. The format is in vivo. The procedure:
Male C57BL/6J mice, homozygous for the disrupted apoE gene (apoE−/−) were fed standard chow (Lab-Feed, Sydney, Australia) until aged 10 weeks. […] The high fat diet (control and probucol-supplemented) was prepared, according to the specifications of the Harlan Teklad diet TD88137. […] After bleeding, mice were gravity-perfused for 5 min with DPBS containing 20 μM BHT and 1 mM EDTA (Buffer A) and aortas removed as described in Letters JM, et al (1999). Briefly, hearts, ascending and descending aortas (past the femoral junction) were excised and carefully cleaned. […] Once cleaned, aortas were separated from the heart taking care to include all aortic material while avoiding heart tissue. To obtain sufficient material for HPLC analysis (i.e., 30-40 mg wet weight tissue) it was necessary to pool 7-8 aortas. Separate pools of aortas were prepared for both groups and then immediately frozen in Buffer A and stored at −80° C. until analyses. Lesions were assessed at four different sites along the aorta, in the aortic root, in the aortic arch, the descending thoracic and in the proximal abdominal aorta, and cross-sections (2-3 μm thick) were prepared and stained with Weigert's hematoxylin-van Gieson.

Data set [5] deals with coronary restenosis after BA. The conditions noted are these: probucol given alone, compared to the placebo, MVP trial; cited from earlier work.
The subject of data set [6] is lipoprotein oxidation in the vessel wall. The data set can be described thus: Aortic lipids, oxidised lipids and antioxidants in apoE−/− mice (HPLC of aortic homogenates). The format is in vivo. The procedure: Male C57BL/6J mice, homozygous for the disrupted apoE gene (apoE−/−) were fed standard chow (Lab-Feed, Sydney, Australia) until aged 10 weeks. […] After bleeding, mice were gravity-perfused for 5 min with DPBS containing 20 μM BHT and 1 mM EDTA (Buffer A) and aortas removed as described in Letters JM, et al (1999). Briefly, hearts, ascending and descending aortas (past the femoral junction) were excised and carefully cleaned. […] Once cleaned, aortas were separated from the heart taking care to include all aortic material while avoiding heart tissue. To obtain sufficient material for HPLC analysis (i.e., 30-40 mg wet weight tissue) it was necessary to pool 7-8 aortas. Separate pools of aortas were prepared for both groups and then immediately frozen in Buffer A and stored at −80° C. until analyses. Pooled aortas were snap frozen in liquid nitrogen, pulverised, resuspended in Buffer A, homogenised and then either treated with metaphosphoric acid (for ascorbate) or extracted and the hexane fraction analysed for lipid-soluble antioxidants, cholesterol (C), choleseteryl esters (CE), lipid hydroperoxides (LOOH) and cholesteryl ester hydroxides (CE-OH) by HPLC as described in Methods Enzymol. 1994;233:469489. LOOH and CE-OH were measured as markers of lipoprotein lipid oxidation, as they are the primary and major oxidation products formed when lipoproteins from apoE−/− mice undergo oxidation. […] All compounds were quantified by peak area comparison with authentic standards, and protein determined.

Data set [7] relates to restenosis in rabbit abdominal aorta after arterial balloon injury. The data set can be described thus: Intimal thickening (intima and media ratio) in rabbit aorta after arterial balloon injury. The format is in vivo. The conditions noted are these: rabbits, 0.02% PDA474 in chow for 9 weeks. The procedure:
The intima and media ratio (IMR) was determined by tracing the intimal and medial areas, and dividing their respective total pixel numbers. Higher IMR indicate larger lesions. *Denotes a statistically significant difference with p<0.05.
PDA474 was synthesised and supplied in pure form (99%) by Polysciences, Inc. (400 Valley Road, Warrington, Pa. 18976, USA).
Twelve New Zealand White rabbits were fed a standard rabbit chow (100 g per day) with (n=6) or without (n=6) 0.02 weight % PDA474 (in dry powder form) for 9 weeks. The initial dosage was based on in vitro studies and other useful dosage amounts can be easily derived using a similar approach.
At the end of week 3, the abdominal aorta of all rabbits was injured by ABI. At the end of week 9, the infra-renal abdominal aorta was removed, fixed in 4% buffered formalin, embedded in paraffin, sectioned and stained with Verhoeff Hematoxylin. The intima and media ratio (IMR) was then determined by tracing the intimal and medial areas, and dividing their respective total pixel numbers. Higher IMR indicate larger lesions.

A further data set concerns α-tocopheroxyl radical. The data set can be described thus: Tocopheroxyl radical attenuating ability (TRAA). Type of data set: biochemical. The conditions noted are these: kobs in presence (+) or absence (−) of test compound.
For data set [8], the system named is tocopherol-mediated peroxidation (TMP). The data set is described as follows: Anti-TMP index. Type of data set: biochemical.
The mark [9] stands for this setting: compared to controls, per protein.

As to `CC(C)(Sc1cc(C(C)(C)C)c(O)c(C(C)(C)C)c1)Sc1cc(C(C)(C)C)c(O)c(C(C)(C)C)c1` [Probucol], the “Plasma Triglyceride” value in data set [1] (apoE−/− mice, probucol-supplemented diet, 24 weeks) turned out to be 0.4 ± 0.0 mM. Moreover, the “drug converted into bisphenol or diphenoquinone, plasma” value in data set [1] (plasma) was around 8%. The “increase of plasma ascorbate” value in [1] (plasma, probucol treated vs control mice) was around 1.4 fold. Besides, the “proportion of aortic lipids that was oxidized” value in data set [2] was “not affected”. The atherosclerosis entry in data set [2] (aortic denudation at week 3) is on record as “significantly decreased atherosclerosis”. Moreover, the “content of plasma and aortic lipids, and absolute amounts of oxidized lipids” value in data set [2] (vs controls) is on record as “significantly decreased”. For the same molecule, in [3] (HDL plus mouse serum albumin), the “-TOH in HDL fraction” value was 1.4, the “C20:4 in HDL fraction” value is 24.0, the “C in HDL fraction” value was 0.12 and the “Total CoQ in HDL fraction” value is given as 0.1. In data set [3] (LDL), the “-TOH in LDL fraction” value is listed as 7.8, the “C20:4 in LDL fraction” value is listed as 50.4, the “C in LDL fraction” value amounted to 0.96 and the “Total CoQ in LDL fraction” value is 0.4. In addition, in data set [3] (VLDL), the “-TOH in VLDL fraction” value is on record as 0.56, the “C18:2 in VLDL fraction” value was 340 and the “Total CoQ in VLDL fraction” value was 0.1. The “probucol level during the oxidation period” value in the data set with plasma lipids is listed as “remained unchanged”. Moreover, in the data set on plasma lipids (vs control plasma), the “onset and initial rate of accumulation of CE-O(O)H” value is “delayed and decreased respectively”. Also, in data set [4], the “Treatment effect, Abdominal Aorta” value was determined as 10%; the “Treatment effect, Arch” value was 44%; the “Treatment effect, Descending Thoracic Aorta” value amounted to 15%. For the same molecule, in data set [5], the “reduction of angiographic lumen loss” value was 68%, the “reduction of need for repeat angioplasty at 6 months” value is given as 58% and the “reduction of restenosis rate per segment” value was 47%. The “drug metabolised to bisphenol or diphenoquinone, aorta” value in data set [6] (aorta) is around 11%. In addition, in data set [6] (setting [9]), the “decrease of aortic concentration of C” value is on record as 5.6 fold, the “decrease of aortic concentration of total CoQ (ubiquinones plus ubiquinols)” value came to 2.5 fold and the “decrease of aortic concentration of vitamin E” value stood at 2.9 fold.

On to `CC(C)(C)c1cc(SSc2cc(C(C)(C)C)c(O)c(C(C)(C)C)c2)cc(C(C)(C)C)c1O` [PDA474], for which the “lower IMR in drug-treated animals vs control” value in data set [7] turned out to be 34%. The “intima and media ratio (IMR)” value in [7] (ABI at end of week 3, mean±SEM, n=6) amounted to 0.76±0.13.

Regarding `Cc1cc(C(C)(C)C)c(O)c(C(C)(C)C)c1` [BHT], the “TRAA (decay of α-tocopheroxyl radical; kobs(+)/kobs(−))” value in the data set with α-tocopheroxyl radical is given as “Immediate decay”. The Anti-TMP index in data set [8] is given as 8-10.
